Assays:
AMPK = experiment: Determination of AMPK activation in differentiated C2C12 myoblast cells (SAMS peptide, [γ-32P]ATP); assay type: cell-based; settings: C2C12 myoblast cells treated at 5 μg/ml; DMSO (0.5%) control = 1
Protocol: Myoblast cells, C2C12, were cultured in DMEM containing 10% bovine calf serum. When a cell density reached a range of about 85% to 90%, the culture medium was replaced with a medium containing 1% bovine calf serum to induce differentiation of cells. The thus-differentiated myoblast cells were treated with samples synthesized in Examples 1 through 16 at a concentration of 5 μg/ml, and compared with a control group. Enzymatic activity of AMPK was determined as follows. Firstly, C2C12 cells were lysed to obtain protein extracts and then ammonium sulfate was added to a final concentration of 30%, thereby precipitating proteins. Protein precipitates were dissolved in a buffer (62.5 mM Hepes, pH 7.2, 62.5 mM NaCl, 62.5 mM NaF, 1.25 mM Na pyrophosphate, 1.25 mM EDTA, 1 mM DTT, 0.1 mM PMSF, and 200 μM AMP). Thereafter, 200 μM SAMS peptide (HMRSAMSGLHLVKRR: the underlined serine residue is a phosphorylation site, as an AMPK phosphorylation site of acetyl-CoA carboxylase) and [γ-32P]ATP were added thereto and reactants were reacted for 10 minutes at 30° C. This was followed by spotting of the resulting reaction solution on p81 phosphocellulose paper. The p81 paper was washed with a 3% phosphoric acid solution and radioactivity thereof was measured. For each reaction condition, reactions involving no SAMS peptide were also conducted and basic values were subtracted from the thus-observed values.

[1] = tested on: C57BL/6JL Lep ob/Lep ob mice; experiment: Weight loss effects in obese mice (ob/ob); assay type: in vivo; settings: mixed-feed of 0.4% for 18 days; for Increase in BW / change in vivo at 0.4 % in feed: (Final BW−Initial BW)/Initial BW×100; for Final BW: ob/ob male mice; for change in vivo at 0.4 % in feed: Mus musculus, po, 432 h, read-out: Increase in BW
Protocol: (§1) 10-week-old C57BL/6JL Lep ob/Lep ob male mice having obesity characteristics and predisposition were purchased from Daehan Biolink Co., Ltd. (Chungchongbuk-do, Korea). Animals were raised in a breeding room maintained at a temperature of 23° C., 55% humidity, illumination of 300 to 500 lux, a 12-h light/dark (L/D) cycle, and ventilation of 10 to 18 times/hr. Animals were fed ad libitum pellets of Purina Rodent Laboratory Chow 5001 (purchased from Purina Mills Inc., St. Louis, Mo., USA) as a solid feed for experimental animals and tap water as drinking water. Mice were allowed to acclimate to new environment of the breeding room for two weeks and were then administered some pyrano-3,4-phenanthrenequinone or furano-3,4-naphthoquinone derivatives synthesized according to the present invention at mixed-feed of 0.4% for 18 days. Observation was made on changes in body weight, blood glucose and dietary intake, with respect to a time course of administration. After administration was complete, confirm changes in glucose, lipid and enzyme levels in blood.
(§2) For comparison, the same experiments were carried out for the subject (negative control group) to which the active ingredient was not administered, and subject (positive control group) to which Cryptotanshinone, extracted from Danshen by a method as set forth in Example 1 of the Korean Patent Application No. 2004-0116339 by the present applicant, was administered by the above-mentioned condition.
Herein, ‘Increase in BW’ is calculated as the following; Increase in BW=(Final BW−Initial BW)/Initial BW×100

[2] = tested on: C57BL/6JL Lep ob/Lep ob mice; experiment: Blood biomarkers (lipid, glucose, enzyme levels) in ob/ob mice; assay type: in vivo; set-up: unit not given here; settings: after mixed-feed of 0.4% for 18 days
Protocol: as §1, §2

| SMILES | AMPK fold (AMPK) | Final BW [1] | change in vivo at 0.4 % in feed [1] | GOT [2] | GPT [2] | HDL chol [2] | LDL chol [2] | T. chol [2] | glucose [2] | triglyceride [2] | other results |
| --- | --- | --- | --- | --- | --- | --- | --- | --- | --- | --- | --- |
| CC1CC2=C(O1)c1ccc3c(c1C(=O)C2=O)CCCC3(C)C (single isomer, unassigned) [Example 2, 2,6,6-Trimethyl-1,2,6,7,8,9-hexahydro-phenanthro[1,2-b]furan-10,11-dione] | 2.4 fold | 44.4 ± 3.4 g | – | – | – | – | – | – | – | – | Increase in BW [1]: −15.9%; GOT ([2]; listed as Ex. 2): 378.8; GPT ([2]; listed as Ex. 2): 215.0; HDL chol ([2]; listed as Ex. 2): 38.8; LDL chol ([2]; listed as Ex. 2): 21.67; T. chol ([2]; listed as Ex. 2): 125.0; glucose ([2]; listed as Ex. 2): 125; triglyceride ([2]; listed as Ex. 2): 58.8 |
| CC1CC2=C(O1)c1ccc3c(c1C(=O)C2=O)CCCC3(C)C (single isomer, unassigned) [Example 3, 2,6,6-Trimethyl-1,2,6,7,8,9-hexahydro-phenanthro[1,2-b]furan-10,11-dione] | 2.2 fold | 46.1 ± 2.1 g | – | – | – | – | – | – | – | – | Increase in BW [1]: −11.9%; GOT ([2]; listed as Ex. 3): 247.5; GPT ([2]; listed as Ex. 3): 160.0; HDL chol ([2]; listed as Ex. 3): 42.5; LDL chol ([2]; listed as Ex. 3): 12.00; T. chol ([2]; listed as Ex. 3): 134.0; glucose ([2]; listed as Ex. 3): 132; triglyceride ([2]; listed as Ex. 3): 61.7 |
| CC1CC2=C(O1)c1ccc3c(c1C(=O)C2=O)CCCC3 (stereo not shown) [Example 1, 2-Methyl-1,2,6,7,8,9-hexahydro-phenanthro[1,2-b]furan-10,11-dione] | 2.2 fold | 45.3 ± 1.7 g | -14.2% | 233.3 | 118.8 | 42.5 | 13.00 | 141.7 | 120 | 81.7 | – |
| CC1OC2=C(C(=O)C(=O)c3c2ccc2c3CCCC2(C)C)C1(C)C (stereo not shown) [Example 4, 1,1,2,6,6-Pentamethyl-1,2,6,7,8,9-hexahydro-phenanthro[1,2-b]furan-10,11-dione] | 2.2 fold | 48.6 ± 3.3 g | -7.1% | 476.7 | 285.0 | 45.0 | 10.00 | 127.5 | 128 | 76.7 | – |
| CC1C2=C(OC1(C)C)c1ccc3c(c1C(=O)C2=O)CCCC3(C)C (stereo not shown) [Example 5, 1,2,2,6,6-Pentamethyl-1,2,6,7,8,9-hexahydro-phenanthro[1,2-b]furan-10,11-dione] | 2.3 fold | 47.9 ± 3.1 g | -7.8% | 377.5 | 251.0 | 45.5 | 14.05 | 126.5 | 141 | 77.0 | – |
| CC1(C)CCC2=C(O1)c1ccc3c(c1C(=O)C2=O)CCCC3 [Example 6, 3,3-Dimethyl-2,3,7,8,9,10-hexahydro-1H-4-oxa-chrysene-11,12-dione] | 2.2 fold | 49.0 ± 2.7 g | -6.3% | 392.5 | 250.0 | 49.0 | 13.00 | 129.5 | 145 | 69.5 | – |
| CC1CC2=C(O1)c1ccc3ccccc3c1C(=O)C2=O (stereo not shown) [Example 7, 2-Methyl-1,2-dihydro-phenanthro[1,2-b]furan-10,11-dione] | 2.2 fold | 49.6 ± 2.6 g | -3.9% | 286.7 | 143.8 | 58.8 | 14.00 | 148.8 | 156 | 70.0 | – |
| CC1OC2=C(C(=O)C(=O)c3c2ccc2ccccc32)C1(C)C (stereo not shown) [Example 8, 1,1,2-Trimethyl-1,2-dihydro-phenanthro[1,2-b]furan-10,11-dione] | 2.5 fold | 41.1 ± 1.3 g | -20.3% | 376.5 | 241.0 | 48.0 | 13.75 | 132.5 | 118 | 79.5 | – |
| Cc1cc2c(c3ccccc13)C(=O)C(=O)C1=C2OC(C)C1 (stereo not shown) [Example 9, 2,5-Dimethyl-1,2-dihydro-phenanthro[1,2-b]furan-10,11-dione] | 2.3 fold | 48.9 ± 1.7 g | -6% | 355.0 | 77.0 | 48.0 | 11.00 | 135.0 | 136 | 72.0 | – |
| Cc1cc2c(c3ccccc13)C(=O)C(=O)C1=C2OC(C)C1(C)C (stereo not shown) [Example 10, 1,1,2,5-Tetramethyl-1,2-dihydro-phenanthro[1,2-b]furan-10,11-dione] | 2.4 fold | 41.1 ± 1.3 g | -20.3% | 283.3 | 66.7 | 45.0 | 5.00 | 115.0 | 121 | 88.3 | – |
| CC1CC2=C(O1)c1ccc3ccc(C(C)(C)C)cc3c1C(=O)C2=O (stereo not shown) [Example 11, 8-tert-Butyl-2-methyl-1,2-dihydro-phenanthro[1,2-b]furan-10,11-dione] | 2.3 fold | 52.2 ± 1.4 g | -1.2% | 347.5 | 197.5 | 47.5 | 9.95 | 134.0 | 175 | 82.0 | – |
| CC1OC2=C(C(=O)C(=O)c3c2ccc2ccc(C(C)(C)C)cc32)C1(C)C (stereo not shown) [Example 12, 8-tert-Butyl-1,1,2-trimethyl-1,2-dihydro-phenanthro[1,2-b]furan-10,11-dione] | 2.2 fold | 48.3 ± 2.3 g | -6.9% | 355.0 | 77.0 | 48.0 | 11.00 | 135.0 | 153 | 69.0 | – |
| CC1CC2=C(O1)c1ccc3ccc(Cl)cc3c1C(=O)C2=O (stereo not shown) [Example 13, 8-Chloro-2-methyl-1,2-dihydro-phenanthro[1,2-b]furan-10,11-dione] | 2.3 fold | 48.8 ± 2.5 g | -6.3% | 373.5 | 184.0 | 44.0 | 12.00 | 125.5 | 138 | 85.3 | – |
| Cc1ccc2ccc3c(c2c1)C(=O)C(=O)C1=C3OC(C)C1 (stereo not shown) [Example 14, 2,8-Dimethyl-1,2-dihydro-phenanthro[1,2-b]furan-10,11-dione] | 2.5 fold | 48.7 ± 1.9 g | -7% | 283.3 | 66.7 | 45.0 | 5.00 | 115.0 | 146 | 88.3 | – |
| C[C@H]1COC2=C1C(=O)C(=O)c1c2ccc2c1CCCC2(C)C [Positive control group, Cryptotanshinone, reference compound] | – | 51.6 ± 1.7 g | -1.2% | 255.0 | 149.0 | 48.0 | 11.0 | 135.0 | – | 100.9 | – |

Reference: patent US8404869B2, “Phenanthrenequinone-based compound and pharmaceutical composition containing the same for the treatment or prevention of disease involving metabolic syndrome” (Mazence Inc., priority 2007, dated 2013)
